Experimental data published in ChEMBL document CHEMBL5346955, “Discovery of HPG1860, a Structurally Novel Nonbile Acid FXR Agonist Currently in Clinical Development for the Treatment of Nonalcoholic Steatohepatitis” (J Med Chem, 2023).

Key:
Bile acid receptor [1] = target: T1, Bile acid receptor (Homo sapiens, UniProt Q96RI1); test: Agonist activity at human GAL4-FXR-LBD expressed in HEK293T cells assessed as transcriptional activity measured after 16 to 20 hrs by luciferase reporter gene assay; type: cell-based
T1 sequence (Q96RI1 whole entry): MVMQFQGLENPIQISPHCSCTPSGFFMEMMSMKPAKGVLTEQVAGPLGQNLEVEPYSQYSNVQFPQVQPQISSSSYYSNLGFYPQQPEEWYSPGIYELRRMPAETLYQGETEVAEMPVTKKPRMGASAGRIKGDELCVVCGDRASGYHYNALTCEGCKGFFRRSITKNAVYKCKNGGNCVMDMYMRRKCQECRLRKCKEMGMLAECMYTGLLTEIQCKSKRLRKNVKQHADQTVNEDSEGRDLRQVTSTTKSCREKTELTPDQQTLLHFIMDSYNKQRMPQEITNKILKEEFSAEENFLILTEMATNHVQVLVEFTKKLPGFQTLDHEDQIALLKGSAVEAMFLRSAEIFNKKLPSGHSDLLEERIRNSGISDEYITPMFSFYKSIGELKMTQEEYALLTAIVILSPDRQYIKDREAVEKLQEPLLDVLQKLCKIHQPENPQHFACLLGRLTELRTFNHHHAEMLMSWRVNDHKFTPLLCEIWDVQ

Bile acid receptor [2] = target: T1, Bile acid receptor; test: Agonist activity at GST-tagged human FXR-LBD in presence of luorescein-SRC2-2 coactivator peptide by TR-FRET assay

Question: Which EC50 (Bile acid receptor [1]) does the source give for `COc1cc(C(=O)O)cc2sc(N3CCN(Cc4c(-c5c(Cl)cccc5Cl)noc4C(C)C)CC34CC4)nc12` here?
Answer: 1240 nM

Question: `COc1cc(C(=O)O)cc2sc(C3CCN(Cc4c(-c5c(Cl)cccc5Cl)noc4C(C)C)C3)nc12` (stereo not drawn) was tested. Which EC50 (Bile acid receptor [2]) did it give?
Answer: 266 nM

Question: What about the EC50 (Bile acid receptor [1]) of the same compound?
Answer: > 5000 nM
